We go through 1 compound from US10874685B2, “Pancreatic cancer therapy and diagnosis” (Deutsches Krebsforschungszentrum Stiftung des Öffentlichen …, priority 2014, dated 2020).

Entries after “also recorded” stand apart in the source; their conditions may differ.

Assay [1] deals with PANC-1, MIAPaCa-2 and AsPC-1 cell lines. Put plainly: PDAC cell line growth curves under combination therapy. As to conditions: over time. The class given is cell-based, human. From the text:
FIGS. 11A and 11B show PDAC cell line growth curves following combination therapy with DRD2 antagonists, 2-deoxy-D-glucose, and atorvastatin. Percentage cell growth shown on the y-axis following treatment with control (blue line), pimozide (Pim, gray line), atorvastatin and 2-deoxy-D-glucose (ATR+2-DG, red line) and combination of Pim and ATR+2-DG (green line) over time in PANC-1 (top), MIAPaCa-2 (middle) and AsPC-1 (bottom) cell lines (FIG. 11A). Haloperidol (Hal, gray line) is used as the DRD2 antagonist for use alone or in combination with ATR+2-DG as described in A (FIG. 11B). Dosage are indicated for each cell line.
PDAC cell proliferation was measured during pharmacological inhibition of DRD2 alone and in combination with blockade of glycolysis and cholesterol synthesis. To suppress glycolysis, 2-DG, a glucose analog which is a competitor inhibitor of glucose metabolism, was used. To inhibit cholesterol synthesis, atorvastatin (ATR), a competitive inhibitor of 3-hydroxy-3-methylglutaryl-coenzyme A (HMG-CoA) reductase in the cholesterol biosynthesis pathway was used.

Assay [2] relates to KPC-023, KPC-01 and KPC-LM pancreatic cancer cell lines. Put plainly: Viability of primary and metastatic pancreatic cancer cell lines isolated from KPC mice. The class given is cell-based. As to conditions: primary (KPC-023, KPC-01) and metastatic (KPC-LM) lines.
Assay [3] deals with SREBP1, SREBP2, INSIG1, HMGCR, LDLR mRNA. Put plainly: qRT-PCR of cholesterol biosynthesis genes in PDAC cell lines. The class given is cell-based, human. As to conditions: qRT-PCR 18 hours post-treatment; relative to actin. From the text:
(§1) Measurement of 2-deoxy-D-glucose uptake shown on the y-axis relative to control by PDAC cell lines (MIAPaCa2, left; PANC-1, middle; AsPC1, right) treated with DMSO (C), pimozide (P) or haloperidol (H) (FIG. 10A). Abundance of free cholesterol, as measured by staining with filipin, after treatment with haloperidol (H) or pimozide (P) in PDAC cell lines (MIAPaCa2, left; PANC-1, middle; AsPC1, right) (FIG. 10B top). Representative micrographs of filipin-labelled cholesterol. PDAC (MIAPaCa2, top; PANC-1, middle; AsPC1, bottom) cells were seeded for 24 hours and treated with 10 μM haloperidol (H) or pimozide (P) or DMSO for 18 hours (FIG. 10B bottom). Red-fluorescence represents propidium iodide (PI)-stained nuclei and blue-fluorescence represents filipin-stained cholesterol. mRNA levels of genes relative to R-actin shown on the y-axis involved in cholesterol biosynthesis (from left to right: SREBP1, SREBP2, INSIG1, HMGCR, LDLR) measured by qRT-PCR 18 hours post-treatment with DMSO (C), haloperidol (H) or pimozide (P) in three PDAC cell lines (MIAPaCa2, top; PANC-1, middle; AsPC1, bottom) (FIG. 10C).
For mice xenograft tissue samples and cultured cells, the miRNeasy kit (Qiagen, Valencia, Calif.) was used to extract total RNA. […] Quantification values were calculated according to a standard curve method created from a dilution series. […]
On the technique in general: Quantitative PCR measures a nucleic acid by following its amplification.

Assay [4] relates to MIAPaCa-2, PANC-1 and AsPC-1 cells. Put plainly: Glucose uptake measurement (labelled 2-DG) in PDAC cell lines. The class given is cell-based, human. As to conditions: all three cell lines; relative to DMSO control.
From the text: as §1
The induction effect of pimozide or haloperidol on labeled 2-DG uptake in cancer cells were determined from measurement of the fluorescence intensity of cell lysates. […]

Assay [5] shares this test system. Put plainly: Free cholesterol measurement (Filipin staining) in PDAC cell lines. The class given is cell-based, human. Conditions: 10 μM, 18 hours; vs DMSO.
From the text: as §1
Cancer cells were seeded for 24 hours and treated with pimozide, haloperidol or DMSO for 18 hours. The cells were fixed with paraformaldehyde, stained with Filipin™ and propidium iodide (PI), and photographed. Filipin™ is a fluorescent polyene antibiotic that binds to free cholesterol. […]

In assay [6] the test system is Fibroblast (non-cancer cells). Put plainly: Sulforhodamine B (SRB) cytotoxicity assay on fibroblasts. The class given is cell-based, human. As to conditions: increasing concentration, 72 h. How it is done: PANC-1, CFPAC-1, CAPAN-1, MIAPaCa-2, BXPC-3 and fibroblast cells were seeded for 24 h and were exposed to increasing concentration of Pimozide and vehicle for 72 h (FIG. 3A). The same procedure was followed for treatment of cancer cell lines with L741 (FIG. 3B). Cell viability was characterized using a SRB assay. Values are the mean+/−SD of six independent experiments.
Five pancreatic ductal cancer cell lines with various degree of differentiation were obtained from American Type Culture Collection (Rockville, USA) and Normal Human Dermal Fibroblasts (NHDF) obtained from PromoCell. BXPC-3 (moderately differentiated) as well as poorly differentiated human pancreatic cancer cell lines, PANC-1 and MIAPaCa-2, have been established from primary tumor. AsPC-1, CAPAN-1 and CFPAC-1 which represent well differentiated cell lines was isolated from ascites and liver metastasis of pancreas adenocarcinoma. All cell lines contain mutation in P53 whereas K-ras mutation reported in all with the exception of BxPc3. BRCA2 mutation just reported in CAPAN-1 cells.
Sulforhodamine B sodium salt (sigma) was used to assess cell viability and IC50 determination of pancreatic cancer cells. […] Cell viability was specified by using plate reader (TECAN) with measuring of absorbance at 570 and 650 nm (background) in treated or untreated 96 well plate.
A general note: In SRB staining, fixed cells bind dye roughly in proportion to their protein.

Turning to `O=c1[nH]c2ccccc2n1C1CCN(CCCC(c2ccc(F)cc2)c2ccc(F)cc2)CC1` [pimozide], in assay [1], the cell growth result is given as “reduced cell growth”. Moreover, in assay [2], the “viability of KPC mouse pancreatic cancer cell lines” value was “sensitive; also recorded: Dose-dependent effects”. In assay [3], the “expression of genes involved in lipogenesis / cholesterol biosynthesis” value is listed as “inducing expression of genes involved in lipogenesis”. Besides, in assay [4], the “glucose uptake (intracellular labelled 2-deoxy-D-glucose)” value was “elevated uptake of glucose; also recorded: enhanced glucose and cholesterol uptake”. Besides, the “abundance of free cholesterol (Filipin staining)” value in assay [5] is “increased the abundance of free cholesterol; also recorded: enhanced glucose and cholesterol uptake”. In addition, the “cell viability of fibroblasts versus cancer cells” value in assay [6] is recorded as “not as much to Fibroblast”.
